# Source: US20240009175A9, “TETRAZOLE DERIVATIVES” (Merck Patent GmbH, priority 2020, published 2024)
# Tested on: CYP3A4
# Experiment: CYP-induction assay in HepaRG cells, QuantiGene Plex 2.0 (CYP3A4 induction)
# Assay type: in vitro ADME, human
# Conditions: 48 hrs; for CYP3A4 (in parentheses: lowest concentration causing at least 2-fold induction): value in parentheses; for CYP3A4 (significant induction above 20% threshold): value outside parentheses
# From the text: CYP-Induction Assay in HepaRG Cells with the QuantiGene Plex 2.0 Reagent System (Branched DNA-Assay) from Affymetrix (Thermo Scientific) (CYP3A4 Induction)
# The QuantiGene Plex 2.0 assay combines branched DNA (bDNA) signal amplification and multi-analyte profiling beads (xMAP®) technologies to enable the detection and quantitation of multiple RNA targets simultaneously. The xMAP system combines a flow cytometer, fluorescent-dyed microspheres (beads), lasers and digital signal processing to allow multiplexing of up to 100 unique assays within a single sample.
# Human HepaRG cells (Thermo Scientific) were thawed and seeded with a density of 0.72E6 cells/ml in a collagen precoated 96-well plate. After an adaption phase of 3 days in first Williams E medium (Gibco+thawing supplement, Thermo Scientific) the medium was changed to second Williams E medium (Gibco+tox supplement, Thermo Scientific). Daily treatment with test substances at 4 concentrations, started between day 3-10 of culturing, was performed with an incubation time of 48 hrs. After 48 hrs the cells were lysed with 100 μl/well (Lysis mixture, Affymetrix diluted 1:2 with Williams E medium, Gibco and addition of 5 μl proteinase K/ml of the mixture, Affymetrix). The QuantiGene Plex 2.0 assay utilizes fluorescent capture beads to trap specific RNA molecules. In order to hybridize and span contiguous sequences of the target RNA, the probe set containing 3 types of synthetic probes (Capture Extenders, Label Extenders, and Blockers) was incubated with samples and beads at 600 rpm at 54° C. for 16-20 h. Signal amplification was mediated by DNA amplification molecules that hybridize to the tails of the label extenders (incubation of the over-night hybridized beads with pre-amplifier and amplifier reagent for 1 h at 50° C. each, washing steps in between). Each amplification unit contains multiple hybridization sites for biotinylated label probes (incubation with label probe reagent for 1 h at 50° C., washing step in between) that bind Streptavidin-conjugated R-Phycoerythrin (SAPE, last incubation step for 30 min at room temp.). After the SAPE incubation, a last washing step with SAPE buffer was performed (120 μl left in wells). The resulting fluorescence signal associated with individual capture beads was detected on a Luminex 200 flow cytometer (parameters: volume 100 μl, timeout 45 sec., DD-gate 5,000-25,000, bead events 50). Signals were reported as median fluorescence intensity (MFI) and were proportional to the number of target RNA molecules present in the sample.
# For analysis of results, calculation of mean values of 3 technical replicates as well as the standard deviations (% SD up to 30% acceptable) were carried out. The mean value of the blank was subtracted from the mean value of the sample. As the genes HPRT1 and TFRC are housekeeping genes, they are used to normalize sample mean values [(Sample Mean−Blank)/Housekeeper (Mean−Blank)=normalized value (HPRT1 or TFRC)]. Calculation of the fold-change was performed by dividing normalized sample values by the normalized mean values of the DMSO controls [(Sample Mean−Blank)/Housekeeper (Mean−Blank)=fc; (DMSO Mean−Blank)/Housekeeper (Mean−Blank)].
# Experimental data of the compounds shown in Table 1 in the CYP3A4 assay are shown in Table 2 below and given in μM (significant induction above 20% threshold; in parentheses: lowest concentration causing at least 2-fold induction): […]
Compound,CYP3A4 (in parentheses: lowest concentration causing at least 2-fold induction) [µM],CYP3A4 (significant induction above 20% threshold) [µM]
"CCc1c(C(O)(c2ccccc2)c2ccccc2)nc2cc(OC)c(-c3nnn[nH]3)cn12 [Compound 2, [3-Ethyl-7-methoxy-6-(1H-tetrazol-5-yl)-imidazo[1,2-a]pyridin-2-yl]-diphenyl-methanol]",5,2.3
"CCc1c(C(O)(c2ccccc2)c2ccccc2)nn2cc(Cl)c(-c3nnn[nH]3)cc12 [Compound 21, [6-Chloro-3-ethyl-5-(1H-tetrazol-5-yl)-pyrazolo[1,5-a]pyridin-2-yl]-diphenyl-methanol]",50,2.6
"CCn1c(C(O)(c2ccccc2)c2ccccc2)nc2ccc(C(=O)NC[C@@H](C)O)cc21 [Reference Compound, 3-Ethyl-2-[hydroxy(diphenyl)methyl]-N-[(2R)-2-hydroxypropyl]benzimidazole-5-carboxamide, reference compound]",0.15,4.1
"CCn1c(C(O)(c2ccccc2)c2ccccn2)nc2nc(OC)c(-c3nnn[nH]3)cc21 (single isomer, unassigned) [Compound 40, [1-ethyl-5-methoxy-6-(1H-1,2,3,4-tetrazol-5-yl)-1H-imidazo[4,5-b]pyridin-2-yl](phenyl)(pyridin-2-yl)methanol]",5,6.8
"CCn1c(C(O)(c2ccccc2F)c2ccccc2F)nc2nc(C)c(-c3nnn[nH]3)cc21 [Compound 59, [1-ethyl-5-methyl-6-(1H-1,2,3,4-tetrazol-5-yl)-1H-imidazo[4,5-b]pyridin-2-yl]bis(2-fluorophenyl)methanol]",5,13.4
"CCn1c(C(O)(c2ccccc2)c2ccccc2)nc2nc(OC)c(-c3nnn[nH]3)cc21 [Compound 58, [1-ethyl-5-methoxy-6-(1H-1,2,3,4-tetrazol-5-yl)-1H-imidazo[4,5-b]pyridin-2-yl]diphenylmethanol]",50,3.8
"CCc1c(C(O)(c2ccccc2)c2ccccc2)nc2ccc(-c3nnn[nH]3)cn12 [Compound 4, [3-Ethyl-6-(1 H-tetrazol-5-yl)-imidazo[1,2-a]pyridin-2-yl]-diphenyl-methanol]",50,2.2
"CCn1c(C(O)(c2ccccc2)c2ccccc2)nc2nc(Cl)c(-c3nnn[nH]3)cc21 [Compound 51, [5-chloro-1-ethyl-6-(1H-1,2,3,4-tetrazol-5-yl)-1H-imidazo[4,5-b]pyridin-2-yl]diphenylmethanol]",50,3.1
